Data reported in patent US20240336596A1, “PARP7 INHIBITOR AND USE THEREOF” (NOVOSTAR PHARMACEUTICALS, LTD., priority 2022, published 2024).

How the values were obtained:
[1] = molecular target: T1, recombinant human PARP7 protein (Homo sapiens, UniProt Q7Z3E1); assay: Inhibition of PARP7 biological enzyme activity (histone-coated plate, Biotin-NAD+, chemiluminescence); format: biochemical; conditions: recombinant human PARP7, Biotin-NAD+ substrate
T1 construct: purchased Abcam ab271651
T1 sequence (Q7Z3E1 1-657): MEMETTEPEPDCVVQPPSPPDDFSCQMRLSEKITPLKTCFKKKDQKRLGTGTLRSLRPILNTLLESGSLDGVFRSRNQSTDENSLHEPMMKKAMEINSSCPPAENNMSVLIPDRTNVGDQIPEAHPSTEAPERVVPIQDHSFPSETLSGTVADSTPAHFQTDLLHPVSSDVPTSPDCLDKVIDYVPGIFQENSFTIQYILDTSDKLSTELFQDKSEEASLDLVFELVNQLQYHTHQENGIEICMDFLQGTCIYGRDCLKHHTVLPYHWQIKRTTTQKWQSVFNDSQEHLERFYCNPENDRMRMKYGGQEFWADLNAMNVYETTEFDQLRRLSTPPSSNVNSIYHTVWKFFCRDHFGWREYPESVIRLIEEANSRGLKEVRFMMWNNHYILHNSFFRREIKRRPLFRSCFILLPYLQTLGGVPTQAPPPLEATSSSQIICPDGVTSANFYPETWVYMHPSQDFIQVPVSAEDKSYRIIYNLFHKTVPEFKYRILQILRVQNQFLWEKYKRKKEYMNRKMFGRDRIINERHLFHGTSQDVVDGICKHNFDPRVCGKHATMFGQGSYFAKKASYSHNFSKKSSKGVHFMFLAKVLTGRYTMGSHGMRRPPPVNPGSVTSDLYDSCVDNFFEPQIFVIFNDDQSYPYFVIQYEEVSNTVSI
Procedure: The recombinant human PARP7 protein kit (Abcam, catalog number ab271651) was used for the assay. According to the kit instructions, 30 μL of histone coating solution (1.5 μg/mL) was first applied to the 384 well holes of the reaction plate and coated at 4° C. for 2 hours. Then, the histone coated solution was washed off, and 50 μL sealing buffer was added to each well, and the sealing buffer was washed off after incubation at 25° C. for 60 minutes. 1000 times the concentration of the compound was 10 configured and diluted from 1 mM to 0.05 μM, and the configured compound was transferred to 384-well plates with 25 nL per well using Echo. The final concentration of the compound in the reaction system was 1000 nM, 333.33 nM, 111.11 nM, 37.03 nM, 12.34 nM, 4.11 nM, 1.37 nM, 0.45 nM, 0.15 nM, 0.05 nM, which was used as the test hole. At the same time, 25 nL DMSO was added to the negative control well and the positive control well. The PARP7 enzyme solution with a concentration of 1.67 times was prepared, and the PARP7 enzyme solution was added to the test hole and the positive control hole with 15 μL each, while the negative control hole was added with 15 μL base Buffer, and incubated at 25° C. for 15 minutes. Then 10 μL 2.5 times Biotin-NAD+ substrate solution was added and incubated at 25° C. for 60 min. After the reaction solution was washed off, the 384-well reaction plates were treated with closed buffer solution diluted with streptavidin-HRP (1:500), each well was 30 μL, and incubated at 25° C. for 30 min. After the HRP buffer was washed off, 30 μL HRP chemiluminescent substrate mixture was added to each well, and the luminescence signal (RLU) of each well was detected by Envision. Calculation formula: Inhibition rate %=(average positive control-RLU compound)/(average positive control-average negative control))*100%. The dose-response curves of each compound were fitted by GraphPad Prism 8 to get IC50 values. IC50 values less than 0.01 μM are labeled as “+++”, IC50 values from 0.01 to 0.1 µM are labeled as “++”, and IC50 values greater than 0.1 to 10.0 μM are labeled as “+”.

NCI-H1373 cancer cells = assay: NCI-H1373 cancer cell growth inhibition (CellTiter-Glo, 144 hours); format: cell-based; conditions: Homo sapiens, 144 hours culture
Procedure: Promega CellTiter-Glo cell activity assay kit (Item No.: Promege-G7573) was used to determine the cell activity. 90 μL NCI-H1373 cell suspension (ATCC, catalog No. CRL-5866, batch No. 58078716) was spread into the pores of the 96-well plate with 3500 cells per well. After 24 hours, the 10 μL prepared 10× compound working solution was added into the pores of the cell culture plate with a final concentration of 10 μM. 3.3333 μM, 1.1111 μM, 0.3704 μM, 0.1235 μM, 0.0412 μM, 0.0137 μM, 0.0046 μM, 0.0015 μM, 0.0005 μM, 10 μL DMSO was added to the solvent control, and the final concentration of DMSO was 0.2%. The 0-day plates were collected for analysis, and after 144 hours of culture, the growth condition of cells was detected according to the instructions of CellTiter-Glo cell activity assay kit. Add 50 μL of CellTiter-Glo working liquid into each hole of the cell culture plate, shake the plates in the dark for 2 minutes until cell lysis, and place at room temperature for 10 minutes to detect the luminous signal (RUL) of each cell hole on the 2104En Vision board reader.
Calculation formula: Growth inhibition rate %=(1−(RLU compound−RLU Day0)/(RLU solvent control−RLU Day0))*100%. The dose-response curves of each compound were fitted by GraphPad Prism 8 to obtain IC50 values.
For the matter, IC50 values less than 0.1 μM are labeled “+++”, values from 0.1 to 1 μM are labeled “++”, and values greater than 1 to 10 μM are labeled “+”.

Row | Structure (SMILES) | IC50 [1] [nM] | IC50 (NCI-H1373 cancer cells) [nM]
1 | C[C@@H]1CN(c2ccc(C#N)cn2)CCN1C(=O)CO/N=C/[C@H](C)Nc1cn[nH]c(=O)c1C(F)(F)F [Example 13, 6-((R)-3-methyl-4-(2-(((E)-((S)-2-((6-oxo-5-(trifluoromethyl)-1,6-dihydropyridazin-4-yl)amino)propylidene)amino)oxy)acetyl)piperazin-1-yl)nicotinonitrile] | < 10 | 1000 to 10000
2 | C[C@@H](CONC(=O)/C=C1\CCN(c2ncc(C(F)(F)F)cn2)CC1F)Nc1cn[nH]c(=O)c1C(F)(F)F (stereo partly drawn) [Example 23, (E)-2-(3-fluoro-1-(5-(trifluoromethyl)pyrimidin-2-yl)piperidin-4-ylidene)-N—((S)-2-((6-oxo-5-(trifluoromethyl)-1,6-dihydropyridazin-4-yl)amino)propoxy)acetamide] | < 10 | 100 to 1000
3 | C[C@@H](CONC(=O)CC1CCN(c2ncc(C(F)(F)F)cn2)CC1F)Nc1cn[nH]c(=O)c1C(F)(F)F (stereo partly drawn) [Example 53, 2-(3-fluoro-1-(5-(trifluoromethyl)pyrimidin-2-yl)piperidin-4-yl)-N—((S)-2-((6-oxo-5-(trifluoromethyl)-1,6-dihydropyridazin-4-yl)amino)propoxy)acetamide] | < 10 | 100 to 1000
4 | C[C@@H](/C=N/OCCC1CCN(c2ncc(C(F)(F)F)cn2)CC1)Nc1cn[nH]c(=O)c1C(F)(F)F [Example 14, (S,E)-2-((6-oxo-5-(trifluoromethyl)-1,6-dihydropyridazin-4-yl)amino)propanal O-(2-(1-(5-(trifluoromethyl)pyrimidin-2-yl)piperidin-4-yl)ethyl) oxime] | < 10 | 1000 to 10000
5 | CC(/C=N/OCC(=O)N1CCN(c2ncc(C(F)(F)F)cn2)CC1)c1cccc2c(=O)[nH]ncc12 (stereo not drawn) [Example 18, (E)-2-(1-oxo-1,2-dihydrophthalazin-5-yl)propanal O-(2-oxo-2-(4-(5-(trifluoromethyl)pyrimidin-2-yl)piperazin-1-yl)ethyl) oxime] | < 10 | 1000 to 10000
6 | C[C@@H](/C=N/OCC(=O)N1CCN(c2ncc(C#N)cn2)CC1)Nc1cn[nH]c(=O)c1C(F)(F)F [Example 7, (S,E)-2-(4-(2-(((2-((6-oxo-5-(trifluoromethyl)-1,6-dihydropyridazin-4-yl)amino)propylidene)amino)oxy)acetyl)piperazin-1-yl)pyrimidine-5-carbonitrile] | < 10 | 1000 to 10000
7 | CCN(C[C@H](C)Nc1cn[nH]c(=O)c1C(F)(F)F)OCC(=O)N1CCN(c2ncc(C(F)(F)F)cn2)CC1 [Example 3, (S)-5-((1-(ethyl(2-oxo-2-(4-(5-(trifluoromethyl)pyrimidin-2-yl)piperazin-1-yl)ethoxy)amino)propan-2-yl)amino)-4-(trifluoromethyl)pyridazin-3(2H)-one] | 10 to 100 | 

Now from value to molecule:

Row | IC50 [1] [nM] | IC50 (NCI-H1373 cancer cells) [nM] | Structure (SMILES)
8 | < 10 | 100 to 1000 | C[C@@H](CONC(=O)CC1CCN(c2ncc3cc(F)ccc3n2)CC1)Nc1cn[nH]c(=O)c1C(F)(F)F [Example 39, (S)-2-(1-(6-fluoroquinazolin-2-yl)piperidin-4-yl)-N-(2-((6-oxo-5-(trifluoromethyl)-1,6-dihydropyridazin-4-yl)amino)propoxy)acetamide]
9 | < 10 | 100 to 1000 | O=C(CO/N=C/[C@@H](Nc1cn[nH]c(=O)c1C(F)(F)F)C1CC1)N1CCN(c2ncc(C(F)(F)F)cn2)CC1 [Example 10, (S,E)-2-cyclopropyl-2-((6-oxo-5-(trifluoromethyl)-1,6-dihydropyridazin-4-yl)amino)acetaldehyde O-(2-oxo-2-(4-(5-(trifluoromethyl)pyrimidin-2-yl)piperazin-1-yl)ethyl) oxime]
10 | < 10 | 1000 to 10000 | C[C@@H](/C=N/OCC(=O)N1CCN(c2ccc(C#N)cn2)CC1)Nc1cn[nH]c(=O)c1C(F)(F)F [Example 11, (S,E)-6-(4-(2-(((2-((6-oxo-5-(trifluoromethyl)-1,6-dihydropyridazin-4-yl)amino)propylidene)amino)oxy)acetyl)piperazin-1-yl)nicotinonitrile]
11 | < 10 | 100 to 1000 | C[C@@H](CONC(=O)CC1CCN(c2ncc3cc[nH]c3n2)CC1)Nc1cn[nH]c(=O)c1C(F)(F)F [Example 38, (S)-2-(1-(7H-pyrrolo(2,3-d)pyrimidin-2-yl)piperidin-4-yl)-N-(2-((6-oxo-5-(trifluoromethyl)-1,6-dihydropyridazin-4-yl)amino)propoxy)acetamide]
12 | < 10 | < 100 | CC(=O)c1c(N[C@@H](C)CONC(=O)CC2CCN(c3ncc(C(F)(F)F)cn3)CC2)cn[nH]c1=O [Example 36, (S)—N-(2-((5-acetyl-6-oxo-1,6-dihydropyridazin-4-yl)amino)propoxy)-2-(1-(5-(trifluoromethyl)pyrimidin-2-yl)piperidin-4-yl)acetamide]
13 | < 10 | 1000 to 10000 | CC(/C=N/OCC(=O)N1CCN(c2ccc(C(F)(F)F)cn2)CC1)c1cccc2c(=O)[nH]ncc12 (stereo not drawn) [Example 19, (E)-2-(1-oxo-1,2-dihydrophthalazin-5-yl)propanal O-(2-oxo-2-(4-(5-(trifluoromethyl)pyridin-2-yl)piperazin-1-yl)ethyl) oxime]
14 | < 10 | 100 to 1000 | CC[C@@H](/C=N/OCC(=O)N1CCN(c2ncc(C(F)(F)F)cn2)CC1)Nc1cn[nH]c(=O)c1C(F)(F)F [Example 6, (S,E)-2-((6-oxo-5-(trifluoromethyl)-1,6-dihydropyridazin-4-yl)amino)butanal O-(2-oxo-2-(4-(5-(trifluoromethyl)pyrimidin-2-yl)piperazin-1-yl)ethyl)oxime]
15 | < 10 | 100 to 1000 | C[C@@H](CO/N=C/C(=O)N1CCN(c2ncc(C(F)(F)F)cn2)CC1)Nc1cn[nH]c(=O)c1C(F)(F)F [Example 15, (S,E)-2-oxo-2-(4-(5-(trifluoromethyl)pyrimidin-2-yl)piperazin-1-yl)acetaldehyde O-(2-((6-oxo-5-(trifluoromethyl)-1,6-dihydropyridazin-4-yl)amino)propyl) oxime]
16 | 10 to 100 |  | C[C@@H](CN(C)OCC(=O)N1CCN(c2ncc(C#N)cn2)CC1)Nc1cn[nH]c(=O)c1C(F)(F)F [Example 4, (S)-2-(4-(2-((methyl(2-((6-oxo-5-(trifluoromethyl)-1,6-dihydropyridazin-4-yl)amino)propyl)amino)oxy)acetyl)piperazin-1-yl)pyrimidine-5-carbonitrile]
